Laboratory results: article PMC5761851, “Application of a phenotypic drug discovery strategy to identify biological and chemical starting points for inhibition of TSLP production in lung epithelial cells” (PLoS ONE, 2018)

How the values were obtained:
Test in all cases: kinase selectivity panel
Type in all cases: biochemical
[1] = biological target: T1, PKCε (Homo sapiens, UniProt Q02156); conditions: read-out: percentage of control activity (POC), PKCε
T1 construct: purchased Eurofins Pharma Discovery Services (KinaseProfiler; Cerep BioPrint panel)
T1 sequence (Q02156 1-737): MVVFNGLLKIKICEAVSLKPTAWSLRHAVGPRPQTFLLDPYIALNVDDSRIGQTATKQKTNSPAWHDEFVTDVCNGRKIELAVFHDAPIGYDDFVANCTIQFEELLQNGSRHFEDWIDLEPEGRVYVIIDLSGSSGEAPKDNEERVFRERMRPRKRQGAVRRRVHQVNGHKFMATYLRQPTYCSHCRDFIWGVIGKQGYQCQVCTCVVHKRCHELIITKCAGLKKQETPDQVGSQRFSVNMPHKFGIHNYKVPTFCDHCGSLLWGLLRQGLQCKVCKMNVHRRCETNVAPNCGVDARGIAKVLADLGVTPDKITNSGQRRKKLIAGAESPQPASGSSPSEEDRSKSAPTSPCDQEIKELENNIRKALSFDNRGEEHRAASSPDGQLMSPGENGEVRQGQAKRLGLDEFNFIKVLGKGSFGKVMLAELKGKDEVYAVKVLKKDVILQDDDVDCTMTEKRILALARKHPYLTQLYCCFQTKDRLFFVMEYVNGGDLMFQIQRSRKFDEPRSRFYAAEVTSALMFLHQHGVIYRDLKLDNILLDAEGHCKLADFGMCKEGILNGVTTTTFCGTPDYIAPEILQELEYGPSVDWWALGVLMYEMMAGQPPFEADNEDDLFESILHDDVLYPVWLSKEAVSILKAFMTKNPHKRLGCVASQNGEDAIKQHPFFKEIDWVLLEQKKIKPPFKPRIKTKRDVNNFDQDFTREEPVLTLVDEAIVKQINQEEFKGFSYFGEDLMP
Procedure, shortened: (§1)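 Tested at 10 μM in duplicate within a panel of 125 representative kinases. For selected activities, IC50 values were then determined from 9 concentrations, each run in duplicate.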

[2] = biological target: T2, Itk (Homo sapiens, UniProt Q08881); conditions: read-out: percentage of control activity (POC), Itk
T2 construct: purchased Eurofins Pharma Discovery Services (KinaseProfiler; Cerep BioPrint panel)
T2 sequence (Q08881 1-620): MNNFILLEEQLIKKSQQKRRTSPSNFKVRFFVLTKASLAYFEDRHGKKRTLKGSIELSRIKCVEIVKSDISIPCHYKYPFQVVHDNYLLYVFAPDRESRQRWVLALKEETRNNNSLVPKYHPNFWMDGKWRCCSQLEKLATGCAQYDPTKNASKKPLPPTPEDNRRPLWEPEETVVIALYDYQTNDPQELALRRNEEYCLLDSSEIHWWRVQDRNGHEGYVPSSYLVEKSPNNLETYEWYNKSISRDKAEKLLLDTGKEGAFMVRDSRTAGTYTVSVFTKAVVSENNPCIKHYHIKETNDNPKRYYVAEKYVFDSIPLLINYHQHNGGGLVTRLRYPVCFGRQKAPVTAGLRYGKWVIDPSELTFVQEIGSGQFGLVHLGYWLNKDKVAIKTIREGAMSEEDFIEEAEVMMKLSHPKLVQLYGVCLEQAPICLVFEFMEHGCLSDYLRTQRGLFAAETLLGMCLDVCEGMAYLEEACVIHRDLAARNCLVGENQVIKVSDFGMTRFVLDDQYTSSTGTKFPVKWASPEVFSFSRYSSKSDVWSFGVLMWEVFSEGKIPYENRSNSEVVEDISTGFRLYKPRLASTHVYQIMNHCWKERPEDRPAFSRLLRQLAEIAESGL
Procedure, shortened: as §1

[3] = biological target: T3, PI3K (p110d/p85a) (Homo sapiens, UniProt O00329); conditions: for remaining activity at 10 µM: read-out: percentage of control activity (POC), PI3K (p110d/p85a)
T3 construct: Eurofins Pharma Discovery Services (contract assay service)
Procedure, shortened: as §1

[4] = biological target: T4, SAPK3 (Homo sapiens, UniProt P53778); conditions: read-out: percentage of control activity (POC), SAPK3
T4 construct: purchased Eurofins Pharma Discovery Services (KinaseProfiler; Cerep BioPrint panel)
T4 sequence (P53778 1-367): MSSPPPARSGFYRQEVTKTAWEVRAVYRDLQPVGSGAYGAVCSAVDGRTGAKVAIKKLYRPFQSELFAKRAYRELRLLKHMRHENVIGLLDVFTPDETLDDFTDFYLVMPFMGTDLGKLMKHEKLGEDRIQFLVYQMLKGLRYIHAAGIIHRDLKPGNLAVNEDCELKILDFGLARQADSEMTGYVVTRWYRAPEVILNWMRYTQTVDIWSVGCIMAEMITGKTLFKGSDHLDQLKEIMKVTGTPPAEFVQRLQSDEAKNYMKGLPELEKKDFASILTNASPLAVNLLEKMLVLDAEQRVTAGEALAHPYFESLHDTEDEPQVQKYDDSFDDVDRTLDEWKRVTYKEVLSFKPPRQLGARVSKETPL
Procedure, shortened: as §1

[5] = biological target: T5, IRAK1 (Homo sapiens, UniProt P51617); conditions: read-out: percentage of control activity (POC), IRAK1
T5 construct: purchased Eurofins Pharma Discovery Services (KinaseProfiler; Cerep BioPrint panel)
Procedure, shortened: as §1

[6] = biological target: T6, TAK1 (Homo sapiens, UniProt O43318); conditions: read-out: percentage of control activity (POC), TAK1
T6 construct: purchased Eurofins Pharma Discovery Services (KinaseProfiler; Cerep BioPrint panel)
T6 sequence (O43318 1-303 limits assumed): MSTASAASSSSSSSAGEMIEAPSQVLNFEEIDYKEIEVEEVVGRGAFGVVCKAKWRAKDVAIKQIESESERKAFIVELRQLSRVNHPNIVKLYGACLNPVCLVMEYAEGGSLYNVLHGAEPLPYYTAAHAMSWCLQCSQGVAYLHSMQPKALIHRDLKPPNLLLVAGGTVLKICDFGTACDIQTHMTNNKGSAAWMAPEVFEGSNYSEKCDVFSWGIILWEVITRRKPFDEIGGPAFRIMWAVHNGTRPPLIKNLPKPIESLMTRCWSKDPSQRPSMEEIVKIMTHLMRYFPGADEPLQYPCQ
Procedure, shortened: as §1

[7] = biological target: T7, CaMKIIγ (Homo sapiens, UniProt Q13555); conditions: read-out: percentage of control activity (POC), CaMKIIγ
T7 construct: purchased Eurofins Pharma Discovery Services (KinaseProfiler; Cerep BioPrint panel)
Procedure, shortened: as §1

T7 sequence (Q13555 whole entry): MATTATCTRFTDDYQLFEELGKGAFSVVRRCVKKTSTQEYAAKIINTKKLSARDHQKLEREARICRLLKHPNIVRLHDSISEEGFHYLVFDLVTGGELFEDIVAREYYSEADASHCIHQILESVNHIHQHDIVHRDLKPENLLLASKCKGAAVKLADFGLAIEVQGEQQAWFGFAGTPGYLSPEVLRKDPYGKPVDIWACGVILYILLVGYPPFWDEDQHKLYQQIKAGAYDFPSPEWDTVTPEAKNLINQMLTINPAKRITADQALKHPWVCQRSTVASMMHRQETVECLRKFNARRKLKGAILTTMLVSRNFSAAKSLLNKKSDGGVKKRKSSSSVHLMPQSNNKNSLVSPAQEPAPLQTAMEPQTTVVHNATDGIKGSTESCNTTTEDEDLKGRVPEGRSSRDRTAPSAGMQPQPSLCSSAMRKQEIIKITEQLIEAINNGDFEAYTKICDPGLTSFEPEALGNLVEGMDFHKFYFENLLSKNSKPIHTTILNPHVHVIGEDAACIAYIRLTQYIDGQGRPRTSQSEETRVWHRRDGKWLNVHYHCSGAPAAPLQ
T3 sequence (O00329 whole entry): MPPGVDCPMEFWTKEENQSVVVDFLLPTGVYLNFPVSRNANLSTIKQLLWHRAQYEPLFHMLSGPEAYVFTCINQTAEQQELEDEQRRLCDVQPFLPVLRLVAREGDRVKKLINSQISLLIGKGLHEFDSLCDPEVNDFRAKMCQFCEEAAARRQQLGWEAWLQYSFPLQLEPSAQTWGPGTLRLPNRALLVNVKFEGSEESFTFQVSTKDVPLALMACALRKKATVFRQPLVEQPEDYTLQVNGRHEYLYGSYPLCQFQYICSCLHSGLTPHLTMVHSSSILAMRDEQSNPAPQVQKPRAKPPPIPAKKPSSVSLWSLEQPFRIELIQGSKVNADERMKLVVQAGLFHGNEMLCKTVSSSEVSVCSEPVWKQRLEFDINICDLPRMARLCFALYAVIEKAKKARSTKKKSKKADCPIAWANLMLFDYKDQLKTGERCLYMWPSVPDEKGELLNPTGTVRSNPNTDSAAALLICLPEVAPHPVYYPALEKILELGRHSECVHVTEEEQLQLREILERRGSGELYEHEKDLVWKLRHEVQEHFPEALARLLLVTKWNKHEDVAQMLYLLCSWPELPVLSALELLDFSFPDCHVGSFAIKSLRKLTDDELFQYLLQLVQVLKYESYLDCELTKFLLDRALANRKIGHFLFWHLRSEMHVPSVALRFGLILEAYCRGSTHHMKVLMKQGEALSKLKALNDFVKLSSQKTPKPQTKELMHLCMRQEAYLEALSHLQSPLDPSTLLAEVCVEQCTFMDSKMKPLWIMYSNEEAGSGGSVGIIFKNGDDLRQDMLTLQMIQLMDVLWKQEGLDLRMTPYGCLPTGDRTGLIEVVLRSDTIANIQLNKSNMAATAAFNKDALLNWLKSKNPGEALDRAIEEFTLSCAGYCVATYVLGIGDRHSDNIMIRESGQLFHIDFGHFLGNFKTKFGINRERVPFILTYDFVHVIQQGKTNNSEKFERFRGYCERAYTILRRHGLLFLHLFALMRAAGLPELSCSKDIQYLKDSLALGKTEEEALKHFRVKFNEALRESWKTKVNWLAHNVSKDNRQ
T3 sequence (P27986 whole entry partner): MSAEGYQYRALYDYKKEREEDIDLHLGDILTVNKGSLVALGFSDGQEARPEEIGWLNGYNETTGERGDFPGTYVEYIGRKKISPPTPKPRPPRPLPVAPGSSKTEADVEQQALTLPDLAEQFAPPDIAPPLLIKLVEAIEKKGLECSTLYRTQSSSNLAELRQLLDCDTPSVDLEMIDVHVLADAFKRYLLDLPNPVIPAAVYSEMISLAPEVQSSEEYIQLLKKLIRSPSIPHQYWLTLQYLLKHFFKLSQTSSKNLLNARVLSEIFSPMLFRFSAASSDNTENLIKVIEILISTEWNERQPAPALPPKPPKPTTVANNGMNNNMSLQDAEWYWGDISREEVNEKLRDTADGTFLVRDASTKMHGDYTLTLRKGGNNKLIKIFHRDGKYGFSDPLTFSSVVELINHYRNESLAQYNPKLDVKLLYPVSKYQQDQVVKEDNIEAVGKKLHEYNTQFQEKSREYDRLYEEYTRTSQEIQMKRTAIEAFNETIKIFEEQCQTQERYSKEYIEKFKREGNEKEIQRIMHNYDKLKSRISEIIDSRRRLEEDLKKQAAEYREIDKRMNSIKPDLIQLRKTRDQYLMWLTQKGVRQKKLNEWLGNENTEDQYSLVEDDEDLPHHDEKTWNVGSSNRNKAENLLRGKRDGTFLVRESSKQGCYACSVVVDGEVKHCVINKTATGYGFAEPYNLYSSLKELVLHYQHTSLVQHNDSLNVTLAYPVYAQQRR
T5 sequence (P51617 whole entry): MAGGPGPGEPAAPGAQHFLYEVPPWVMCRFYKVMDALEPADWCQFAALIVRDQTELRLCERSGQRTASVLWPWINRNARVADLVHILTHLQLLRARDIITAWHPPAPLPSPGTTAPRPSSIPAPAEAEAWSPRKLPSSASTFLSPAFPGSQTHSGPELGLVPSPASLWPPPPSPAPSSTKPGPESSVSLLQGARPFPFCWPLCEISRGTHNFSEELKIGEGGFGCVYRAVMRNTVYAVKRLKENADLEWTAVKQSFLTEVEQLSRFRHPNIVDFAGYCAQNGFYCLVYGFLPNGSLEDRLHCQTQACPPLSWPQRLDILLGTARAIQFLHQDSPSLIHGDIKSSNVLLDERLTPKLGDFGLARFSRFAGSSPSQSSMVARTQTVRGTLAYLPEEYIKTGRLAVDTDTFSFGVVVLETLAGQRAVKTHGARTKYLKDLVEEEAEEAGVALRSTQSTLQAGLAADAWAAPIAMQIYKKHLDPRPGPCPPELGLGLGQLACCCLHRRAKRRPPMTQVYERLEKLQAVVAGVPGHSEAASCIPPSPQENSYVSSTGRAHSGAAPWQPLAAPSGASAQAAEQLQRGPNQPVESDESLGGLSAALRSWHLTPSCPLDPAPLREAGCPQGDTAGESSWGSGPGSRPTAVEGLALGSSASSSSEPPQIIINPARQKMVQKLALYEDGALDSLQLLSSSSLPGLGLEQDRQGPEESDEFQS

remaining activity at 10 µM [1] | remaining activity at 10 µM [2] | remaining activity at 10 µM ([3]; 10 μM) | remaining activity at 10 µM [4] | remaining activity at 10 µM [5] | remaining activity at 10 µM [6] | remaining activity at 10 µM [7] | Compound | inhibition at 10 µM ([3]; 10 μM, read-out: inhibition of PI3K (p110δ/p85α)) | IC50 ([3]; biochemical dose response, duplicate, read-out: Inhibition of indicated activity (IC50, μM): PI3K (p110δ/p85α))
102% | 103% | 90% | 78% | 91% | 97% | 103% | Cc1ccc(C(=O)NCC2CC2)cc1-c1ccc2c(c1)NC(=O)C21CCCC1 [compound 3] | – | –
100% | 114% | 90% | 67% | 95% | 103% | 102% | COc1c(NC(=O)c2ccc(C)c(-c3nnc4c(NCC(C)(C)C)nccn34)c2)cc(C(C)(C)C)cc1NS(C)(=O)=O [compound 7, reference compound] | – | –

The remaining lines, values behind:

Compound | remaining activity at 10 µM [1] | remaining activity at 10 µM [2] | remaining activity at 10 µM ([3]; 10 μM) | remaining activity at 10 µM [4] | remaining activity at 10 µM [5] | remaining activity at 10 µM [6] | remaining activity at 10 µM [7] | inhibition at 10 µM ([3]; 10 μM, read-out: inhibition of PI3K (p110δ/p85α)) | IC50 ([3]; biochemical dose response, duplicate, read-out: Inhibition of indicated activity (IC50, μM): PI3K (p110δ/p85α))
CC(C)(C)N1CCC(c2cc(-c3ccc(F)cc3Cl)c3cc[n+]([O-])c(-c4c(Cl)cccc4Cl)c3n2)CC1 [compound 2] | 94% | 110% | 93% | 75% | 102% | 105% | 91% | – | –
Cn1cc(-c2cccc(-c3nc(C(=O)NC4C5CC6CC4CC(O)(C6)C5)c(N)nc3N)c2)cn1 (stereo not shown) [compound 4] | 87% | 109% | 21% | 92% | 89% | 97% | 83% | 79% | 0.233 µM
CS(=O)(=O)N1CCN(c2ccc(Nc3ncc(C(N)=O)c(NC4CC4)n3)cc2)CC1 [compound 5] | 54% | 3% | 90% | 64% | 20% | 1% | 24% | – | –
